From PMC4498246, “Synthesis, characterization, and pharmacological evaluation of novel azolo- and azinothiazinones containing 2,4-dihydroxyphenyl substituent as anticancer agents” (Monatshefte Fur Chemie, 2015)
pIC50: −log10 of the molar value.

What was measured:
Assay type in all cases: cell-based
rat glioma C6 cells = assay: MTT proliferation assay, glioma C6; details: 96 h
Description: (§1) The anticancer effect of compounds was tested in non-small cell lung cancer A549, colon carcinoma HT-29, and glioma C6 cells. The cells were exposed to either culture medium as the control culture or the compounds in concentrations of 10, 25, 50, and 100 μmol dm^−3. […] Cisplatin was used as a reference drug.
(§2) Human non-small cell lung cancer A549 (Cat. No. 86012804), human colon adenocarcinoma HT-29 (Cat. No. 91072201), rat glioma C6 (Cat. No. 92090409) cell lines were obtained from the PHE Culture Collections (Public Health England Culture Collections, Porton Down, Salisbury, UK). Primary culture of normal human skin fibroblasts (HSF) was obtained by the outgrowth technique from skin explants of young persons in our laboratory. The cells were kept in the following culture media purchased from Sigma (Sigma Chemicals, St. Louis, MO, USA): A549—3:1 mixture of DMEM and Nutrient mixture F-12 Ham; C6 and HSF—DMEM, HT-29—1:1 mixture of DMEM and Nutrient mixture F-12 Ham. All media were supplemented with 10 % FBS (Sigma), penicillin (100 U cm^−3, Sigma) and streptomycin (100 μg cm^−3, Sigma). The cultures were kept at 37 °C in a humidified atmosphere of 95 % air and 5 % CO2.
(§3) Cancer cells were plated on 96-well microplates at a density of 1 × 10^4 (A549), 3 × 10^4 (HT-29), and 0.5 × 10^4 (C6) cells cm^−3. Next day, the culture medium was removed and the cells exposed to serial dilutions of compounds (10, 25, 50, and 100 μmol dm^−3) in a fresh medium. Cell proliferation was assessed after 96 h using the MTT method in which the yellow tetrazolium salt (MTT) is metabolized by viable cells to purple formazan crystals. The cancer cells were incubated for 3–4 h with MTT solution (5 mg cm^−3). Formazan crystals were solubilized overnight in the SDS buffer (10 % SDS in 0.01 mol dm^−3 HCl) and the product quantified spectrophotometrically by measuring absorbance at the 570 nm wavelength using a Elx800 microplate reader (BIO-TEK, Highland Park, Winooski, Vermont, USA).

[1] = tested on: human colon carcinoma HT-29; assay: MTT proliferation assay, HT-29; details: HT-29 cells, 96 h
Description: as §1, §2, §3

[2] = tested on: normal human skin fibroblasts HSF; assay: LDH cytotoxicity assay, skin fibroblasts; details: 24 h; for Effect on death cells in the culture (protective properties, LDH): 10–100 μmol dm^−3
Description: Additionally, the influence of compounds on normal human skin fibroblast primary culture (HSF) was assessed. HSF cells were exposed to compounds (10–100 μmol dm^−3) for 24 h and the level of lactic dehydrogenase (LDH) released from the damaged cells was measured (LDH method). […] Only compound 2c in all tested concentrations and 2b in the concentration 100 μmol dm^−3 were highly toxic for skin fibroblasts. […] This may indicate protective properties of the compounds.
as §2
Skin fibroblasts HSF were plated on 96-well microplates at a density of 1 × 10^5 cells cm^−3. The following day, the culture medium was removed and the cells exposed to serial dilutions of compounds (10, 25, 50, and 100 μmol dm^−3) diluted in a fresh culture medium with a reduced amount of FBS (2 %). Cytotoxicity was detected after 24 h with the use In Vitro Toxicology Assay Kit, Lactic Dehydrogenase based (Sigma). The assay is based on the reduction of NAD by the action of lactic dehydrogenase (LDH) released from damaged cells. The resulting NADH is utilized in the stoichiometric conversion of a tetrazolium dye. The resulting coloured compound is measured spectrophotometrically. The test was carried out according to the kit procedure. The colour product was quantified spectrophotometrically at 450 nm wavelength using an Elx800 microplate reader.

[3] = tested on: human non-small cell lung cancer A549; assay: MTT proliferation assay, A549; details: A549 cells, 96 h
Description: as §1, §2, §3

Row | pIC50 (rat glioma C6 cells; Rattus norvegicus) | Compound | pIC50 ([1]; Homo sapiens) | Effect on death cells in the culture (protective properties, LDH) [2] | pIC50 ([3]; Homo sapiens) | also measured
1 | 4.27 | O=c1sc(-c2cc(Cl)c(O)cc2O)nc2[nH]cnc12 [3d, 5-(5-Chloro-2,4-dihydroxyphenyl)imidazo[4,5-d][1,3]thiazin-7(3H)-one] | – | – | – | –
2 | 4.00 | COc1c(O)ccc(-c2nc3n[nH]cc3c(=O)s2)c1O [1e, 6-(2,4-Dihydroxy-3-methoxyphenyl)pyrazolo[3,4-d][1,3]thiazin-4(2H)-one] | – | – | – | –
3 | 4.45 | Cc1cc(-c2nc3n[nH]cc3c(=O)s2)c(O)cc1O [1b, 6-(2,4-Dihydroxy-5-methylphenyl)pyrazolo[3,4-d][1,3]thiazin-4(2H)-one] | 3.96 | – | – | –
4 | – | Cc1cc(-c2nc3[nH]cnc3c(=O)s2)c(O)cc1O [4a, 5-(2,4-Dihydroxy-5-methylphenyl)imidazo[4,5-d][1,3]thiazin-7(1H)-one] | – | induced a decrease of death cells in the culture | – | –
5 | – | N.N.[Cl][Pt][Cl] [cisplatin, reference compound] | – | – | – | pIC50 [3]: 5.37; pIC50 [1]: 5.22; pIC50 (rat glioma C6 cells): 6.40
6 | 4.74 | O=c1sc(-c2cc(Cl)c(O)cc2O)nc2nc[nH]c12 [4c, 5-(5-Chloro-2,4-dihydroxyphenyl)imidazo[4,5-d][1,3]thiazine-7(1H)-one] | 4.21 | – | 4.33 | –
7 | – | CCCc1nn(C)c2c(=O)sc(-c3ccc(O)c(C)c3O)nc12 [2b, 5-(2,4-Dihydroxy-3-methylphenyl)-1-methyl-3-propylpyrazolo[4,3-d][1,3]thiazin-7(1H)-one] | – | – | – | Cytotoxicity (LDH release) ([2]; concentration 100 μmol dm^−3): highly toxic
8 | 4.50 | CCCc1nn(C)c2c(=O)sc(-c3cc(Cl)c(O)cc3O)nc12 [2e, 5-(5-Chloro-2,4-dihydroxyphenyl)-1-methyl-3-propylpyrazolo[4,3-d][1,3]thiazin-7(1H)-one] | – | – | – | –
9 | 4.31 | CCCc1nn(C)c2c(=O)sc(-c3ccc(O)cc3O)nc12 [2a, 5-(2,4-Dihydroxyphenyl)-1-methyl-3-propylpyrazolo[4,3-d][1,3]thiazin-7(1H)-one] | – | – | 4.25 | –
10 | 4.05 | CCc1cc(-c2nc3nc[nH]c3c(=O)s2)c(O)cc1O [4b, 5-(5-Ethyl-2,4-dihydroxyphenyl)imidazo[4,5-d][1,3]thiazine-7(1H)-one] | – | – | – | –
11 | 4.49 | CCCc1nn(C)c2c(=O)sc(-c3cc(CC)c(O)cc3O)nc12 [2d, 5-(5-Ethyl-2,4-dihydroxyphenyl)-1-methyl-3-propylpyrazolo[4,3-d][1,3]thiazin-7(1H)-one] | – | – | 4.46 | –
12 | – | Cc1cc(-c2nc3[nH]cnc3c(=O)s2)c(O)cc1O [3b, 5-(2,4-Dihydroxy-5-methylphenyl)imidazo[4,5-d][1,3]thiazin-7(3H)-one] | – | induced a decrease of death cells in the culture | – | –

Row | Compound | pIC50 (rat glioma C6 cells; Rattus norvegicus) | pIC50 ([1]; Homo sapiens) | Effect on death cells in the culture (protective properties, LDH) [2] | pIC50 ([3]; Homo sapiens) | also measured
13 | CCc1cc(-c2nc3[nH]cnc3c(=O)s2)c(O)cc1O [3c, 5-(5-Ethyl-2,4-dihydroxyphenyl)imidazo[4,5-d][1,3]thiazin-7(3H)-one] | 5.09 | 4.12 | induced a decrease of death cells in the culture | 4.30 | –
14 | CCc1cc(-c2nc3n[nH]cc3c(=O)s2)c(O)cc1O [1c, 6-(5-Ethyl-2,4-dihydroxyphenyl)pyrazolo[3,4-d][1,3]thiazin-4(2H)-one] | 4.64 | 4.68 | induced a decrease of death cells in the culture | 4.49 | –
15 | Cc1c(O)ccc(-c2nc3[nH]cnc3c(=O)s2)c1O [3a, 5-(2,4-Dihydroxy-3-methylphenyl)imidazo[4,5-d][1,3]thiazin-7(3H)-one] | 4.48 | – | induced a decrease of death cells in the culture | 4.31 | –
16 | CCCc1nn(C)c2c(=O)sc(-c3cc(C)c(O)cc3O)nc12 [2c, 5-(2,4-Dihydroxy-5-methylphenyl)-1-methyl-3-propylpyrazolo[4,3-d][1,3]thiazin-7(1H)-one] | 4.57 | 3.80 | – | – | Cytotoxicity (LDH release) ([2]; all tested concentrations (10–100 μmol dm^−3)): highly toxic
17 | Cc1c(O)ccc(-c2nc3n[nH]cc3c(=O)s2)c1O [1a, 6-(2,4-Dihydroxy-3-methylphenyl)pyrazolo[3,4-d][1,3]thiazin-4(2H)-one] | 4.76 | 3.99 | induced a decrease of death cells in the culture | 5.04 | –
